Experimental data from patent publication US20090318396A1, “CORTICOSTEROID LINKED BETA-AGONIST COMPOUNDS FOR USE IN THERAPY” (priority 2008, published 2009).

Experiments:
[1] = Stability of steroid C-21 esters, carbonates and carbamates in rat lung homogenate; settings: for Mean [Parent] (nM) at 2 hrs, 37° C.: parent compound; for Mean % compound remaining at 2 hrs, 37° C.: 900 nM, n=3
Procedure: Lungs from Fischer 344 rats were obtained fresh by overnight delivery at 4° C. from BioReclamation Inc. (Hicksville, N.Y.). Lungs were weighed and homogenized in a 1:3 w/v ratio with sterile phosphate buffered saline (PBS, 10 mM, pH 7.4) in glass vials on ice. After centrifugation at 3,000×g for 10 min at 4° C. the supernatant was decanted into sterile conical tubes and placed on ice. The total protein content of the supernatant was determined by the bicinchoninic acid (BCA) method (Pierce Biotechnology, Rockford, Ill.), using bovine serum albumin (BSA) as the standard. Lung homogenates were prepared to a final concentration of 1 mg total protein/mL in 10 mM PBS, pH 7.4.
Heat-inactivation was achieved by incubation at 80° C. for 30 min, after which the homogenate was allowed to cool to room temperature, stored overnight at 4° C. The homogenate was used for the assay and standard curve preparations. Before use, each homogenate preparation was equilibrated for 15 min in a 37° C. water bath. […] DMSO (2.7 uL) added to 3 mL of temperature-equilibrated homogenate served as a control. Aliquots (100 uL) of homogenate+compound were added to 400 μL quenching solution consisting of 100% HPLC-grade acetonitrile+500 ng/mL glyburide for the zero time point (n=3 for each time point).
The glyburide served as an internal LC/MS/MS standard. The remainder of each drug+homogenate solution was aliquoted into a 96-well tissue culture plates. After an additional 30 min and 120 min incubation at 37° C., 100 μL aliquots were added to 400 μL quenching solution. Denatured proteins in the quenching solution were separated by centrifugation at 3000×g for 2 min at 4° C., and 160 μL of the supernatants were transferred to new 96-well plate for analysis by LC/MS/MS. Collection plates were covered with plastic film and were kept on ice. For storage, covered plates were and kept stored at −80° C. until further use.
An aliquot of 50 μL of each sample was diluted with 50 μL of water containing internal standard at 4° C. The diluted samples were then centrifuged for 20 minutes at 3000 rpm at 4° C. An aliquot of 20 μL of the solution was injected into the TSQ Ultra Quantum.
LC/MS/MS system. The compounds were separated by HPLC using a HyPurity C18 HPLC column (30×2.1 mm, 5μ) from ThermoHypersil. A Multiplex LX-2 HPLC system (Cohesive Technologies, Franklin, Mass.) with two identical Agilent 1100 series binary pumps (P/N G1312A) were used for elution and separation. Samples were maintained at 4° C. in an HTS Pal autosampler (LEAP Technologies, Carrboro, N.C.) in order to reduce any potential spontaneous hydrolysis of the compounds before injection onto the HPLC. The analytes were eluted using the following mobile phases; Mobile phase A contained 1% acetonitrile in 10 mM ammonium formate aqueous solution with 1% formic acid. Mobile phase B contained 80% acetonitrile in 10 mM ammonium formate with 1% formic acid. The HPLC elution program used to elute the analytes was as follows:
The samples were further analyzed by tandem mass spectrometry using a TSQ Quantum Ultra triple quadrupole mass spectrometer (Thermo Finnigan, San Jose, Calif.) using a selective reaction monitoring (SRM) scan type. The mass spectrometry parameters used were as follows:
Nine-point standard curves for each test compound were prepared and analyzed in heat-inactivated lung homogenate. […] The data expressed in Table 2 represent the mean (n=3) percent remaining compound in both types of homogenate at 2 hours, 37° C.

[2] = Drug levels in plasma, BALF and lung after IT administration in the rat; settings: for Plasma Conc: analyte after IT administration of Example 83, 1 mg/kg
Procedure: Compounds of Examples 52 and 83 were formulated for intratracheal (IT) dosing in 10% EtOH, 90% Sterile Water, and dosed in male Sprague-Dawley rats at 3 mg/kg (Example 52) and 1 mg/kg (Example 83). Each dosing group consisted of 3 male, naïve purebred Sprague-Dawley rats. At dosing, the animals weighed ˜0.30 kg. The animals were fasted overnight prior to dose administration and up to 2 hr after dosing. The compounds were administered IT using a Penn Century Microsprayer (Model 1A-1B).
Blood samples were collected at 0.5, 2, and 4 hours post-dose. Each blood sample (0.5-0.6 mL per sample) was collected via the orbital sinus (following anesthesia for BAL procedure) into tubes containing EDTA anti-coagulant into containers surrounded by dry ice at 0.5, 2 and 4 hr (mean, n=6). Blood samples were stored at −20±5° C. until shipped for analysis.
The animals were anesthetized with an intramuscular (IM) injection of a ketamine/xylazine/acepromazine (80/10/2 mg/kg) cocktail at a dose volume of 1.1 mL/kg. A cannula (modified Bard® infant feeding tube) was inserted into the trachea. Warmed sterile saline was injected into the lungs. The lungs were gently massaged by palpation of the chest for approximately 45 seconds. The fluid (BALF) was recovered and placed on ice. The procedure was repeated two more times, and all three BALF samples pooled. The fluid was centrifuged under refrigerated conditions at 350 g for 10 minutes. The supernatant and cell pellet were collected and stored at approximately −70° C. until shipped for analysis.
Immediately following each BAL procedure, the lungs from each animal were removed, blotted dry, weighed, and stored frozen at −70° C. until shipped for analysis.
An LC/MS/MS method was used to measure the concentration of compound in plasma.
Add 3×w/v of 1×PBS buffer (90:10-PBS:ACN) to each lung tissue. Homogenize the sample w/Polytron (PT1200) and take 50 uL of supernatant and inject to LC/MSMS.
An aliquot of 50 μL of each plasma sample was treated with 100 mL of acetonitrile (ACN) containing internal standard. After the protein precipitation, an aliquot of 100 μL of the supernatant was transferred to a clean 96-well plate and mixed with 100 μL of water. An aliquot of 30 μL of the above solution was injected to the TSQ Ultra Quantum LC/MS/MS system.
A HyPurity C18 HPLC column (30×2.1 mm, 5μ) from ThermoHypersil (Part #: 22105-032130) was used. Mobile phase A contained 1% acetonitrile in 10 mM ammonium formate aqueous solution with 1% formic acid. Mobile phase B contained 80% acetonitrile in 10 mM ammonium formate with 1% formic acid. An Agilent 1100 series binary pump (P/N G1312A Bin Pump) was used for elution and separation. HTS Pal autosampler from LEAP Technologies, Carrboro, N.C. was used.
TSQ Quantum Ultra triple quadrupole mass spectrometer from Thermo Finnigan, San Jose, Calif. was used in selective reaction monitoring (SRM) operation mode, Tune file:

[3] = Inactive (heat-inactivated) rat lung homogenate

Structure (SMILES)	Mean [Parent] (nM) at 2 hrs, 37° C. ([1]; Active homogenate) [nM]	Mean % compound remaining at 2 hrs, 37° C. ([1]; Active rat lung homogenate) [%]	Mean % compound remaining at 2 hrs, 37° C. [1, 3] [%]	Mean [Parent] (nM) at 2 hrs, 37° C. ([1]; Inactive homogenate) [nM]	Metabolism in the lung following IT administration ([2]; IT)	Plasma Conc ([2]; 0.5 hr)	Plasma Conc ([2]; 2.0 hr)	Plasma Conc ([2]; 4.0 hr)
CC(CN(C)C)OC(=O)OCC(=O)[C@@]12O[C@H](C3CCCCC3)O[C@@H]1C[C@H]1[C@@H]3CCC4=CC(=O)C=C[C@]4(C)[C@H]3[C@@H](O)C[C@@]12C (some centres unmarked) [Example 28]	120	45	64	147				
C[C@]12C=CC(=O)C=C1CC[C@@H]1[C@@H]2[C@@H](O)C[C@@]2(C)[C@H]1C[C@H]1O[C@@H](C3CCCCC3)O[C@]12C(=O)COC(=O)c1cccnc1 [Example 29, Nicotinic acid [[11β,16α]-[[((R)-cyclohexylmethylene)bis(oxy)]-11-hydroxypregna-1,4-diene-3,20-dion-21-yl]]ester]	2	1	72	130				
CCN(CC)Cc1cccc(C(=O)OCC(=O)[C@@]23O[C@H](C4CCCCC4)O[C@@H]2C[C@H]2[C@@H]4CCC5=CC(=O)C=C[C@]5(C)[C@H]4[C@@H](O)C[C@@]23C)c1 [Example 31, 3-Diethylaminomethylbenzoic acid [[11β,16α]-[[((R)-cyclohexylmethylene)bis(oxy)]-11-hydroxypregna-1,4-diene-3,20-dion-21-yl]]ester]	127	68	68	127				
CCN(CC)CC(=O)OCC(=O)[C@@]12O[C@H](C3CCCCC3)O[C@@H]1C[C@H]1[C@@H]3CCC4=CC(=O)C=C[C@]4(C)[C@H]3[C@@H](O)C[C@@]12C [Example 32, 4-Diethylaminoacetic acid [[11β,16α]-[[((R)-cyclohexylmethylene)bis(oxy)]-11-hydroxypregna-1,4-diene-3,20-dion-21-yl]]ester]	1	1	61	119				
C[C@]12C=CC(=O)C=C1CC[C@@H]1[C@@H]2[C@@H](O)C[C@@]2(C)[C@H]1C[C@H]1O[C@@H](C3CCCCC3)O[C@]12C(=O)COC(=O)/C=C/c1cccnc1 [Example 33, 3-(Pyridin-3-yl)acrylic acid [[11β,16a]-[[((R)-cyclohexylmethylene)bis(oxy)]-11-hydroxypregna-1,4-diene-3,20-dion-21-yl]]ester]	4	3	78	124				
C[C@]12C=CC(=O)C=C1CC[C@@H]1[C@@H]2[C@@H](O)C[C@@]2(C)[C@H]1C[C@H]1O[C@@H](C3CCCCC3)O[C@]12C(=O)COC(=O)CCc1cccnc1 [Example 34, 3-(Pyridin-3-yl)propionic acid [[11β,16α]-[[((R)-cyclohexylmethylene)bis(oxy)]-11-hydroxypregna-1,4-diene-3,20-dion-21-yl]]ester]	1	0	73	159				
CN1CCC[C@H]1C(=O)OCC(=O)[C@@]12O[C@H](C3CCCCC3)O[C@@H]1C[C@H]1[C@@H]3CCC4=CC(=O)C=C[C@]4(C)[C@H]3[C@@H](O)C[C@@]12C [Example 38, (S) 1-Methylpyrrolidinecarboxylic acid [[11β,16α]-[[((R)-cyclohexylmethylene)bis(oxy)]-11-hydroxypregna-1,4-diene-3,20-dion-21-yl]]ester]	1	1	40	71				
CN(C)CCNC(=O)OCC(=O)[C@@]12O[C@H](C3CCCCC3)O[C@@H]1C[C@H]1[C@@H]3CCC4=CC(=O)C=C[C@]4(C)[C@H]3[C@@H](O)C[C@@]12C [Example 39, 2-Dimethylaminoethylcarbamic acid [[11β,16α]-[[((R)-cyclohexylmethylene)bis(oxy)]-11-hydroxypregna-1,4-diene-3,20-dion-21-yl]]ester]	186	92	78	162				
CN(C)CCN(C)C(=O)OCC(=O)[C@@]12O[C@H](C3CCCCC3)O[C@@H]1C[C@H]1[C@@H]3CCC4=CC(=O)C=C[C@]4(C)[C@H]3[C@@H](O)C[C@@]12C [Example 40, 2-Dimethylaminoethyl(methyl)carbamic acid [[11β,16α]-[[((R) -cyclohexylmethylene)bis(oxy)]-11-hydroxypregna-1,4-diene-3,20-dion-21-yl]]ester]	222	83	78	167				
CN1CCN(C(=O)OCC(=O)[C@@]23O[C@H](C4CCCCC4)O[C@@H]2C[C@H]2[C@@H]4CCC5=CC(=O)C=C[C@]5(C)[C@H]4[C@@H](O)C[C@@]23C)CC1 [Example 41, 4-Methylpiperazinecarboxylic acid [[11β,16α]-[[((R)-cyclohexylmethylene)bis(oxy)]-11-hydroxypregna-1,4-diene-3,20-dion-21-yl]]ester]	170	68	78	172				
CC(C)[C@@H](N)C(=O)OCC(=O)[C@@]12O[C@H](C3CCCCC3)O[C@@H]1C[C@H]1[C@@H]3CCC4=CC(=O)C=C[C@]4(C)[C@H]3[C@@H](O)C[C@@]12C [Example 50, Valine [[11β,16α]-[16,17-((R)-cyclohexylmethylene)bis(oxy)]-11-hydroxypregna-1,4-diene-3,20-dion-21-yl]ester]	219	45	25	50				
CC(C)[C@@H](NC(=O)c1cccnc1)C(=O)OCC(=O)[C@@]12O[C@H](C3CCCCC3)O[C@@H]1C[C@H]1[C@@H]3CCC4=CC(=O)C=C[C@]4(C)[C@H]3[C@@H](O)C[C@@]12C [Example 51, N-(Pyridin-3-carbonyl)valine [[11β,16α]-[16,17-((R)-cyclohexylmethylene)bis(oxy)]-11-hydroxypregna-1,4-diene-3,20-dion-21-yl]ester]	176	86	85	169				
CN(C)CC(=O)OCC(=O)[C@@]12O[C@H](C3CCCCC3)O[C@@H]1C[C@H]1[C@@H]3CCC4=CC(=O)C=C[C@]4(C)[C@H]3[C@@H](O)C[C@@]12C [Example 75, N,N-Dimethylglycine [[11β,16α]-[16,17-((R)-cyclohexylmethlylene)bis(oxy)]-11-hydroxypregna-1,4-diene-3,20-dion-21-yl]ester]	1	1	55	101				
C[C@]12C=CC(=O)C=C1CC[C@@H]1[C@@H]2[C@@H](O)C[C@@]2(C)[C@H]1C[C@H]1O[C@@H](C3CCCCC3)O[C@]12C(=O)COC(=O)Cc1cccnc1 [Example 76, 3-Pyridineacetic acid [[11β,16α]-[16,17-((R)-cyclohexylmethylene)bis(oxy)]-11-hydroxypregna-1,4-diene-3,20-dion-21-yl]ester]	4	2	83	142				
CC(C)[C@@H](C(=O)OCC(=O)[C@@]12O[C@H](C3CCCCC3)O[C@@H]1C[C@H]1[C@@H]3CCC4=CC(=O)C=C[C@]4(C)[C@H]3[C@@H](O)C[C@@]12C)N(C)C [Example 79, N,N-dimethylvaline [[11β,16α]-[16,17-((R)-cyclohexylmethylene)bis(oxy)]-11-hydroxypregna-1,4-diene-3,20-dion-21-yl]ester]	149	85	61	88				
CC[N+](CC)(CC(=O)OCC(=O)[C@@]12O[C@H](C3CCCCC3)O[C@@H]1C[C@H]1[C@@H]3CCC4=CC(=O)C=C[C@]4(C)[C@H]3[C@@H](O)C[C@@]12C)Cc1cc([C@@H](O)CNCCCCCCOCCCCc2ccccc2)ccc1OP(=O)(O)O.[Cl-] [Example 83, [5-[1-(R)-hydroxy-2-[6-(4-phenylbutoxy)hexylamino]ethyl]-2-phosphonooxybenzyl]-(diethyl)-[[11β,16α]-[16,17-((R-cyclohexylmethylene)bis(oxy)]-11-hydroxypregna-1,4-diene-3,20-dion-21-oxy]-carbonylmethyl]ammonium chloride]					metabolized to Salmeterol and Desisobutyryl Ciclesonide in the lung			
C[C@]12C=CC(=O)C=C1CC[C@@H]1[C@@H]2[C@@H](O)C[C@@]2(C)[C@H]1C[C@H]1O[C@@H](C3CCCCC3)O[C@]12C(=O)CO [des-ciclesonide, desisobutyryl ciclesonide, reference compound]	119	98	71	84		BLQ	BLQ	BLQ
